From ChEMBL document CHEMBL1909046, “DrugMatrix in vitro pharmacology data” come the findings set out here.

The target in one assay is T1, B2 bradykinin receptor (Homo sapiens, UniProt P30411). Also: in other assays of this panel Not Active means under 50% inhibition at 10 µM.
T1 sequence (P30411 whole entry): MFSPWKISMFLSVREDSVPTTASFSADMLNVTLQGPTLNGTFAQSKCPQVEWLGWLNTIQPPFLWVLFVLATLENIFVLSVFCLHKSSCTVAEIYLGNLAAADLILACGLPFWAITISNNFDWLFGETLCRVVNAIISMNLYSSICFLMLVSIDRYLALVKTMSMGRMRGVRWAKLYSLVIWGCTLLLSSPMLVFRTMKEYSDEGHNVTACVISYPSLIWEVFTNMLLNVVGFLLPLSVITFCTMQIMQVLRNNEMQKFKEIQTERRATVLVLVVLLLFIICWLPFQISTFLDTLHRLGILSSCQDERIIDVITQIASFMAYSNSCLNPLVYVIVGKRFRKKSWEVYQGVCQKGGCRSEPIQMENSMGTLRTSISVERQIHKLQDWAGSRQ
The assay is classed as cell membranes, Membrane. The note with it: chem-1.

Assay [1] deals with T2, C-C chemokine receptor type 4 (Homo sapiens, UniProt P51679).
T2 sequence (P51679 whole entry): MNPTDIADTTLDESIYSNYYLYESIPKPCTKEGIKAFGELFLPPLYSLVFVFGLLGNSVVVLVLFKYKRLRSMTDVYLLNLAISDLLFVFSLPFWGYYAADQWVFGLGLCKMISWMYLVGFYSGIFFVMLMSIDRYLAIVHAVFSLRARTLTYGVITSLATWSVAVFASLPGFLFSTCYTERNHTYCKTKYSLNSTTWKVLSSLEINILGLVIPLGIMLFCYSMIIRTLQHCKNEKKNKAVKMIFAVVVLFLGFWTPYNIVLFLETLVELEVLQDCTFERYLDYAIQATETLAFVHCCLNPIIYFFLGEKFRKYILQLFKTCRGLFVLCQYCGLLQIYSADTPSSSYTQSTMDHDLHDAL
The assay is classed as cell membranes, Membrane. To be noted: chem-1.

Assay [2] can be described thus: DRUGMATRIX: Glutamate, AMPA radioligand binding (ligand: [3H] AMPA). It is filed as cell membranes, Rattus norvegicus, Wistar, Cerebral cortex, Membrane. To be noted: Not Active = under 50% inhibition at 10 µM.
A short description of assay [3]: DRUGMATRIX: Nicotinic Acetylcholine radioligand binding (ligand: [125I] Epibatidine). To be noted: imr-32; Not Active = under 50% inhibition at 10 µM. The assay is classed as cell membranes, Membrane.
Assay [4] can be described thus: DRUGMATRIX: Phosphodiesterase PDE4 enzyme inhibition (substrate: [3H]cAMP + cAMP). To be noted: u-937; Not Active = under 50% inhibition at 10 µM.
Assay [5] can be described thus: DRUGMATRIX: Platelet-Derived Growth Factor (PDGF) radioligand binding (ligand: [125I] PDGF). The assay is classed as cell-based. The note with it: nih3t3; Not Active = under 50% inhibition at 10 µM.
In assay [6] the target is Mitogen-activated protein kinase 14 (Homo sapiens, UniProt Q16539). More on the design: species or system Escherichia coli.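 Also: inhibition of p38alpha enzyme activity in a biochemical kinase assay, with myelin basic protein serving as substrate; in other assays of this panel Not Active means under 50% inhibition at 10 µM.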
The target of assay [7] is Epidermal growth factor receptor (Homo sapiens, UniProt P00533). In words: DRUGMATRIX: Protein Tyrosine Kinase, EGF Receptor enzyme inhibition (substrate: Poly(Glu:Tyr)). It is filed as cell-based, Insect cells. The note with it: Not Active = under 50% inhibition at 10 µM.

Mitogen-activated protein kinase 14, sequence (Q16539 whole entry): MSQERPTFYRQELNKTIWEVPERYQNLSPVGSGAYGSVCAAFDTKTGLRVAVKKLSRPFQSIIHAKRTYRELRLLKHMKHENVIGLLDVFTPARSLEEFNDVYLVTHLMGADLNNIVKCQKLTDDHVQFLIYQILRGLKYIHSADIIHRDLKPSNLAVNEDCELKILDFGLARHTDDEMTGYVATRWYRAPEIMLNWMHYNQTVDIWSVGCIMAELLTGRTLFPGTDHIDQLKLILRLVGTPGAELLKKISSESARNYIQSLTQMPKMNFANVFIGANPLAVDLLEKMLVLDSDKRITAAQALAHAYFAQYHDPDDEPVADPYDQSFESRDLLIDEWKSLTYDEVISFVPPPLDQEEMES

Take `NC1CCN(c2nc3c(cc2F)c(=O)c(C(=O)O)cn3-c2ccc(F)cc2F)C1` (stereo not drawn) [TOSUFLOXACIN]: the IC50 result (against B2 bradykinin receptor; in assay [1]; in assay [2]; in assay [3]; in assay [4]; in assay [5]) was “Not Active” throughout. In addition, the IC50 entry in assay [6] and in assay [7] (insect cells) was “Not Active” in each case. The Ki entry in assay [2], in assay [3], in assay [4] and in assay [5] was “Not Active” each time.
Consider `O=C(Nc1ccc(Br)cc1)c1cc(Br)cc(Br)c1O` [TRIBROMSALAN], for which the concentration for half-maximal inhibition (IC50) result (at B2 bradykinin receptor; in assay [1]; in assay [2]; in assay [3]; in assay [4]; in assay [5]) was “Not Active” throughout. Further, the IC50 stood at 715 nM in assay [6] (read-out: IC50) and 2990 nM in assay [7] (read-out: IC50). Moreover, the Ki result in assay [2], in assay [3], in assay [4] and in assay [5] was “Not Active” in each case.
Regarding `CC(c1cc2ccccc2s1)N(O)C(N)=O` (stereo not drawn) [ZILEUTON], the IC50 result (at B2 bradykinin receptor; in assay [1]; in assay [2]; in assay [3]; in assay [4]; in assay [5]) was “Not Active” throughout. For the same compound, the IC50 entry in assay [6] and in assay [7] (insect cells) was “Not Active” throughout. Also, the Ki result in assay [2], in assay [3], in assay [4] and in assay [5] was “Not Active” throughout.
Turning to MANGANESE CHLORIDE ANHYDROUS, the concentration for half-maximal inhibition (IC50) entry (against B2 bradykinin receptor; in assay [1]; in assay [2]; in assay [3]; in assay [4]; in assay [5]) was “Not Active” throughout. Also, the IC50 entry in assay [6] and in assay [7] (insect cells) was “Not Active” each time. The Ki entry (at B2 bradykinin receptor; in assay [1]; in assay [2]; in assay [3]; in assay [4]; in assay [5]) was “Not Active” throughout. The Ki entry in assay [6] and in assay [7] (insect cells) was “Not Active” throughout.
Turning to SODIUM ORTHOVANAD, the IC50 entry (on B2 bradykinin receptor; in assay [1]; in assay [2]; in assay [3]; in assay [4]; in assay [5]) was “Not Active” throughout. Besides, the IC50 result in assay [6] and in assay [7] (insect cells) was “Not Active” in each case. Further, the Ki result (at B2 bradykinin receptor; in assay [1]; in assay [2]; in assay [3]; in assay [4]; in assay [5]) was “Not Active” each time. For the same compound, the Ki result in assay [6] and in assay [7] (insect cells) was “Not Active” each time.

For orientation: IC50 means the midpoint of a concentration-inhibition curve.
